Patent US8257696B2, “Indefinite culture of human adult glia without immortalization and therapeutic uses thereof” (University of Florida Research Foundation, Inc., priority 2004, dated 2012)
Entries after “also recorded” stand apart in the source; their conditions may differ.

Columns and labels:
Format in all cases: cell-based, human
[1] = tested on: TERT; assay: Telomerase (TERT) expression after growth arrest; conditions: high passage cells, measured 7 days after addition
Description: Cells were plated on coverslips coated with poly-L-lysine or polyornithine and laminin and grown to confluency in proliferative media. Cells were fixed with 4% paraformaldehyde ([…], 25° C.). After washing with PBS, cells were blocked 20 min in PBS containing 10% FCS, 5% normal goat serum, and 0.01% Triton X-100. Primary antibodies were applied for either 1 hour at 25° C. or overnight at 4° C. in PBS containing 10% FCS and 0.01% Triton X-100. Primary antibodies: β III tubulin (mouse monoclonal, 1:300, Promega), BrdU (mouse monoclonal, 1:50, Becton-Dickinson), CNPase (mouse monoclonal, 1:250, Chemicon), GFAP (rabbit polyclonal, 1:600, DAKO), glutamine synthetase (rabbit polyclonal, 1:100, AbCam), map2a-c (chicken polyclonal, 1:30,000), nestin (mouse monoclonal, 1:50, Chemicon), O4 (mouse monoclonal IgM, 1:150, Chemicon), S100-β (rabbit polyclonal, 1:100, Swant), telomerase (rabbit polyclonal, 1:200, Santa Cruz). Secondary antibodies were applied for 45 min at 25° C. in PBS containing 10% FCS and 0.01% Triton X-100. […] SA-βGal expression was assessed 7 days after addition of growth arrestors as described (Dimri, G. P. et al. Proc Nat'l Acad Sci U S A 92, 9363-7 (1995)). […] Fluorescence microscopy was performed on a Leica DMLB upright microscope and images were captured with a Spot RT Color CCD camera (Diagnostic Instruments). […]

[2] = tested on: high passage cells (HES astroglia); assay: Senescence-associated β-galactosidase (SA-β-gal) expression after growth arrestors; conditions: evaluated 7 days after addition, 1 μg/ml aphidicolin or 20 μM EGCG, vs age-matched controls
Description: Primary tissue was gathered from individuals undergoing surgery related to medically intractable temporal lobe epilepsy. Primary tissue was removed and stored overnight in ice-cold DMEM/F-12 medium containing 20 mg/ml penicillin, […] streptomycin., and 25 ng/ml amphotericin B (collectively 1× antibiotics). Hippocampus (containing hilus) and temporal cortex (not containing subventricular zone) were microdissected from biopsied tissue samples (n=4, data presented from person). Dissected tissues were placed in 1× phosphate buffered saline (PBS, pH 7.3) lacking CaCl2 or MgCl2, and were manually dissociated into 1 mm^3 pieces under sterile conditions. Tissues were collected and resuspended in 0.005% trypsin (15 min, 37° C., pH 7.3), and were further triturated using restricted bore pipetting. Cells were collected, resuspended in proliferative media, and seeded onto uncoated T75 culture flasks overnight (12 hr, 37° C., 5% humidified CO2). […] Cells were dissociated with 0.005% trypsin, counted (using trypan dye exclusion as viability criteria), and were replated onto uncoated 60 mm plastic dishes. […] To assess viability of cells in various growth conditions, equal numbers of culture-matched cells were seeded into triplicate wells of various proliferative conditions, and counted 7, 14, and 21 days later. […] Significance (p<0.05) was calculated using a student's t-test. […]

[3] = tested on: high passage cells (HES astroglia); assay: Growth rate by cell counting after reversible growth inhibitors and washout; conditions: for proliferation upon removal of growth inhibitors: after removal of inhibitor; for rate of cellular proliferation (growth rate): high passage cells, measured 7 days after addition
Description: Primary tissue was gathered from individuals undergoing surgery related to medically intractable temporal lobe epilepsy. Primary tissue was removed and stored overnight in ice-cold DMEM/F-12 medium containing 20 mg/ml penicillin, […] streptomycin., and 25 ng/ml amphotericin B (collectively 1× antibiotics). Hippocampus (containing hilus) and temporal cortex (not containing subventricular zone) were microdissected from biopsied tissue samples (n=4, data presented from person). Dissected tissues were placed in 1× phosphate buffered saline (PBS, pH 7.3) lacking CaCl2 or MgCl2, and were manually dissociated into 1 mm^3 pieces under sterile conditions. Tissues were collected and resuspended in 0.005% trypsin (15 min, 37° C., pH 7.3), and were further triturated using restricted bore pipetting. Cells were collected, resuspended in proliferative media, and seeded onto uncoated T75 culture flasks overnight (12 hr, 37° C., 5% humidified CO2). Unattached cells were collected and seeded onto uncoated 60 mm plastic dishes in proliferative media. Proliferative media was comprised of DMEM/F-12 containing N2 supplements, 35 μg/ml bovine pituitary extract, 1× antibiotics, 5% fetal calf serum (FCS), and 40 ng/ml of EGF and FGF. 20 ng of EGF and FGF were supplemented twice daily. When necessary, media was changed every fourth day. Cells were frozen in aliquots of 1 million cells in DMEM/F-12 containing 10% FCS and 20% dimethyl sulfoxide (v/v). Cells were passaged 1:2 when confluent. Cells were dissociated with 0.005% trypsin, counted (using trypan dye exclusion as viability criteria), and were replated onto uncoated 60 mm plastic dishes. For growth monitoring experiments, 1 μg/ml aphidicolin or 20 μM EGCG were added to culture media 1 hour after plating. Irradiated cells were treated with a single 3 Gy dose of X-irradiation. Following the period of application, cells were washed in 1×PBS and were resuspended in proliferative media or fixed. To assess viability of cells in various growth conditions, equal numbers of culture-matched cells were seeded into triplicate wells of various proliferative conditions, and counted 7, 14, and 21 days later. For growth factor analysis, EGF and/or FGF were removed for seven days, and surviving cells were returned to proliferative media. Significance (p<0.05) was calculated using a student's t-test. In vitro images of cultured cells were captured using a Nikon Eclipse TS-100 bright field microscope and a Spot 3.1 digital camera (Diagnostic Instruments).
Isolation and Culture of Tissue: Primary tissue was gathered from individuals undergoing surgery related to medically intractable temporal lobe epilepsy. […]

Compound: C[C@@]1(CO)[C@H](O)CC[C@@]2(C)[C@H]1CC[C@H]1C[C@@H]3C[C@@]12CC[C@]3(O)CO [aphidicolin]
- TERT (telomerase) expression [1]: continue to express telomerase
- SA-β-gal expression [2]: marked increase in SA-β-Gal; also recorded: significantly higher levels of SA-β-gal than age-matched controls
- proliferation upon removal of growth inhibitors [3]: return to previous levels of proliferation
- rate of cellular proliferation (growth rate) [3]: lose their ability to proliferate in culture

Compound: epigallocatechin-3-gallate [EGCG]
- TERT (telomerase) expression [1]: continue to express telomerase; also recorded: remained detectable; also recorded: remained ubiquitous
- SA-β-gal expression [2]: marked increase in SA-β-Gal; also recorded: express SA-β-Gal
- proliferation upon removal of growth inhibitors [3]: return to previous levels of proliferation
- rate of cellular proliferation (growth rate) [3]: lose their ability to proliferate in culture; also recorded: significantly reduced; also recorded: significant reduction
